Results published in US11839607B2, “Memantine paroxetine cocrystal salt and its preparation method, pharmaceutical composition and application” (priority 2018, dated 2023).
Read-outs that look alike come from different tables or passages of the source.

Test: Pharmacokinetic experiment of memantine paroxetine cocrystal salt in rats (plasma memantine by LC-MS/MS)
Type: in vivo, SD rat
Settings: gavage
Text: Determination of the pharmacokinetic parameters of […] and paroxetine in rat plasma by LC-MS/MS method
The memantine paroxetine cocrystal salt prepared in embodiment 1; memantine hydrochloride; dexamethasone (Intermediate inspection office); ammonium formate; methanol is all chromatographic pure (Merck Company); formic acid is all chromatographic pure (Aladdin Company); acetonitrile is all chromatographic pure (Merck Company); experimental water is deionized purified water.
SD rat, SPF grade, male, weight 200-250 g, purchased from Zhejiang Experimental Animal Center, production license No.: SCXK (Zhejiang) 2014-0001.
Liquid mass spectrometer: Thermo Finnigan TSQ Quantum, composed of Surveyor As, Surveyor MS Pump Plus and TSQ Quantum, Thermo Fisher Scientific Company; Sartorius BP-211D electronic balance; Thermo STRATOS high speed freezing centrifuge; Eppendorf PCB-11 micro vortex mixer; Milli-Q Grandient pure water meter.
Chromatographic column: Waters Cortecs C18 (2.1 mm×50 mm, 2.7 μm); column temperature: 35° C.; mobile phase: acetonitrile-[…] ammonium formate containing 0.1% formic acid (10:90); flow rate: 0.2 mL·min^−1; sample injection volume: 5 μL.
Ion detection method: multiple reaction monitoring (MRM); ionic polarity: positive ion (Positive); ionization mode: electrospray ionization (ESI); ionization voltage (IS): 3000.0V; temperature: 300° C.; sheath gas: 35; auxiliary gas: 30.
10 rats are randomly divided into 2 groups, 5 rats in each group: group A: 5.6 mg/kg memantine hydrochloride; group B: 17.4 mg/kg cocrystal salt;
The rats are fasted for 12 h before the experiment, and the tested drugs re given by gavage with the volume of 1 mL/100 g. Before and 5, 10, 20, 40, 60, 120, 180, 240, 360 and 480 min after administration, 0.5 mL of blood is collected through the fundus vein plexus. Anticoagulate the heparin. Centrifugate at 4000 rpm for 10 min, and separate the plasma. It can be used for the determination of memantine concentration.

[1] = male SD rats, same molar dose: group A 5.6 mg/kg memantine hydrochloride, group B 17.4 mg/kg cocrystal salt, average value

SMILES | AUC(0-t) [1] | AUC(0-∞) [1] | CLz/F [1] | Cmax [1] | MRT(0-t) [1] | MRT(0-∞) [1] | T1/2z [1] | Tmax [1] | AUC(0-∞) ratio, cocrystal salt versus memantine hydrochloride (same molar dose, rats) | Cmax ratio, cocrystal salt versus memantine hydrochloride (same molar dose, rats) | T1/2 ratio, cocrystal salt versus memantine hydrochloride (same molar dose, rats) | Tmax ratio, cocrystal salt versus memantine hydrochloride (same molar dose, rats) | AUC(0-inf) (Sprague-Dawley (SD), rat, po, male SD rats, same molar dose: group A 5.6 mg/kg memantine hydrochloride, group B 17.4 mg/kg cocrystal salt, average value) | AUC(0-t) (Sprague-Dawley (SD), rat, po, male SD rats, same molar dose: group A 5.6 mg/kg memantine hydrochloride, group B 17.4 mg/kg cocrystal salt, average value, read-out: AUC(0-t)) | Cmax (Sprague-Dawley (SD), rat, po, male SD rats, same molar dose: group A 5.6 mg/kg memantine hydrochloride, group B 17.4 mg/kg cocrystal salt, average value, read-out: Cmax) | MRT last (Sprague-Dawley (SD), rat, po, male SD rats, same molar dose: group A 5.6 mg/kg memantine hydrochloride, group B 17.4 mg/kg cocrystal salt, average value, read-out: MRT(0-t)) | MRT inf (Sprague-Dawley (SD), rat, po, male SD rats, same molar dose: group A 5.6 mg/kg memantine hydrochloride, group B 17.4 mg/kg cocrystal salt, average value, read-out: MRT(0-∞)) | Tmax (Sprague-Dawley (SD), rat, po, male SD rats, same molar dose: group A 5.6 mg/kg memantine hydrochloride, group B 17.4 mg/kg cocrystal salt, average value, read-out: Tmax)
CC12CC3CC(C)(C1)CC(N)(C3)C2.Fc1ccc([C@@H]2CCNC[C@H]2COc2ccc3c(c2)OCO3)cc1.O.O.O.O=S(=O)(O)O [cocrystal salt, C19H20FNO3·C12H21N·H2SO4·3H2O] | 1.982124 ng·h/mL | 3.16723 ng·h/mL | 94414.6 mL/min/kg | 0.449186 ng/mL | 3.298 h | 8.1 h | 5.605 h | 0.868 h | 4.10 times | 1.62 times | 2.79 times | 1.41 times | – | – | – | – | – | –
CC12CC3CC(C)(C1)CC(N)(C3)C2.Cl [memantine hydrochloride, 3,5-Dimethyl-1-aminoadamantane hydrochloride, reference compound] | – | – | 123437.1 mL/min/kg | – | – | – | 2.009 h | – | – | – | – | – | 0.773 ng·h/mL | 0.714 ng·h/mL | 0.276 ng/mL | 2.43 h | 3.05 h | 0.617 h
